Reference: patent US20250368635A1, “HETEROARYL DERIVATIVE COMPOUND, AND USES THEREOF” (VORONOI, INC., priority 2022, published 2025)
Each block holds one compound with its values, some of them ahead of it.

Assays:
[1] = test system: Ba/F3 cells expressing EGFR Del19/C797S (EGFR DC); assay: Inhibition of proliferation of Ba/F3 cells expressing EGFR Del19/C797S (CellTiter-Glo, 72 h); type: cell-based; settings: Mus musculus, BaF3, 72 hours treatment
Description: (§1) The following experiment was performed to evaluate the inhibitory activity of the compounds according to the present invention on the proliferation of Ba/F3 cells expressing EGFR Del19/C797S (EGFR DC) and EGFR L858R/C797S (EGFR LC) mutations.
(§2) Ba/F3 cells were cultured using medium (RPMI-1640) containing 10% fetal bovine serum (FBS) and 5 ng/ml IL-3 (R&D Systems). The transduced Ba/F3 cells were cultured by adding 1 μg/ml puromycin (Invitrogen) to the same medium.
(§3) 24 hours prior to treatment with compounds, 3,000 to 5,000 cells were seeded on a well plate (white clear bottom 96 well plate, Corning). The compounds were diluted in dimethyl sulfoxide (3-fold dilution, total of 12 concentrations) and injected at 1 μl each so that the final concentration was 0.2 nM to 5 μM. After 72 hours post treatment with compounds, living cells were stored at room temperature for 10 minutes using CellTiter-Glo luminescent cell-viability reagent (Promega), and the luminescence intensity thereof was measured using a reader (Synergy Neo, Biotek). Each test was repeated three times. The result values were calculated as a cell growth rate (%) compared to the control group. A graph was created using the GraphPad Prism version 8.3.0 program, and GI50 values were calculated.

[2] = test system: Ba/F3 cells expressing EGFR L858R/C797S (EGFR LC); assay: Inhibition of proliferation of Ba/F3 cells expressing EGFR L858R/C797S (CellTiter-Glo, 72 h); type: cell-based; settings: Mus musculus, BaF3, 72 hours treatment
Description: as §1, §2, §3

SMILES: COc1cc(N2CCC3C(C2)C3(F)F)c(-c2cnn(C)c2)cc1Nc1cc(N2OCC[C@@H]2c2cccc(F)c2F)ncn1 (stereo partly drawn) [Example 41, N-(4-(7,7-difluoro-3-azabicyclo[4.1.0]heptan-3-yl)-2-methoxy-5-(1-methyl-1H-pyrazol-4-yl)phenyl)-6-((R)-3-(2,3-difluorophenyl)isoxazolidin-2-yl)pyrimidin-4-amine]
GI50 [1]: 0.1 to 1 µM
GI50 [2]: 0.1 to 1 µM

SMILES: COc1cc(N2CC3(CCN(C(C)(C)CF)CC3)C2)c(-c2cnn(C)c2)cc1Nc1cc(N2OCC[C@@H]2c2cccc(F)c2F)ncn1 [Example 14, (R)-6-(3-(2,3-difluorophenyl)isoxazolidin-2-yl)-N-(4-(7-(1-fluoro-2-methylpropan-2-yl)-2,7-diazaspiro[3.5]nonan-2-yl)-2-methoxy-5-(1-methyl-1H-pyrazol-4-yl)phenyl)pyrimidin-4-amine]
GI50 [1]: < 0.1 µM
GI50 [2]: < 0.1 µM

SMILES: COc1cc(N2CCC3(CC2)CC(OC)C3)c(-c2cnn(C)c2)cc1Nc1cc(N2OCC[C@@H]2c2cccc(F)c2F)ncn1 [Example 30, (R)-6-(3-(2,3-difluorophenyl)isoxazolidin-2-yl)-N-(2-methoxy-4-(2-methoxy-7-azaspiro[3.5]nonan-7-yl)-5-(1-methyl-1H-pyrazol-4-yl)phenyl)pyrimidin-4-amine]
GI50 [1]: < 0.1 µM
GI50 [2]: < 0.1 µM

The next lines start with the values.

GI50 [1]: < 0.1 µM
GI50 [2]: < 0.1 µM
SMILES: COc1cc(N2CCC3(CCN(CCF)CC3)CC2)c(-c2cnn(C)c2)cc1Nc1cc(N2OCC[C@@H]2c2cccc(F)c2F)ncn1 [Example 50, (R)-6-(3-(2,3-difluorophenyl)isoxazolidin-2-yl)-N-(4-(9-(2-fluoroethyl)-3,9-diazaspiro[5.5]undecan-3-yl)-2-methoxy-5-(1-methyl-1H-pyrazol-4-yl)phenyl)pyrimidin-4-amine]

GI50 [1]: < 0.1 µM
GI50 [2]: < 0.1 µM
SMILES: COc1cc(N2CCC3(CCOCC3)CC2)c(-c2cnn(C)c2)cc1Nc1cc(N2OCC[C@@H]2c2cccc(F)c2F)ncn1 [Example 28, (R)-6-(3-(2,3-difluorophenyl)isoxazolidin-2-yl)-N-(2-methoxy-5-(1-methyl-1H-pyrazol-4-yl)-4-(3-oxa-9-azaspiro[5.5]undecan-9-yl)phenyl)pyrimidin-4-amine]
